This passage reports IC50 results from patent US20250215029A1 (Recludix Pharma, Inc., priority 2022, published 2025).

Molecules are shown by their SMILES.

The term IC50 denotes the concentration at which inhibition is half-maximal.

The target in assay [1] is T1, Recombinant STAT3 protein (STAT3 (G127-I722)) (Homo sapiens, UniProt P40763).
T1 construct: Recombinant STAT3 protein (STAT3 (G127-I722))
Nature of the assay: STAT3 Fluorescence Polarization (FP) Assay. The conditions noted are these: STAT3 (G127-I722) 25 nM, probe 5-FAM-GpYLPQTV-NH2 2 nM, 45-minute incubation; read-out: STAT3 (FP assay IC50 class). The format is binding. The method, boiled down:
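Compounds in serial dilution receive a premix of STAT3 (G127-I722, 25 nM) and fluorescent phosphotyrosine peptide 5-FAM-GpYLPQTV-NH2 (2 nM) at pH 7.4. After 45 min at room temperature, FP is measured and IC50 derived by nonlinear regression.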
For orientation: Fluorescence polarisation rises when a labelled molecule tumbles more slowly, as on binding a larger partner.

The target in assay [2] is T2, Recombinant STAT6 protein (STAT6 (W123-T658)) (Homo sapiens, UniProt P42226).
T2 construct: Recombinant STAT6 protein (STAT6 (W123-T658))
T2 sequence (P42226 123-658): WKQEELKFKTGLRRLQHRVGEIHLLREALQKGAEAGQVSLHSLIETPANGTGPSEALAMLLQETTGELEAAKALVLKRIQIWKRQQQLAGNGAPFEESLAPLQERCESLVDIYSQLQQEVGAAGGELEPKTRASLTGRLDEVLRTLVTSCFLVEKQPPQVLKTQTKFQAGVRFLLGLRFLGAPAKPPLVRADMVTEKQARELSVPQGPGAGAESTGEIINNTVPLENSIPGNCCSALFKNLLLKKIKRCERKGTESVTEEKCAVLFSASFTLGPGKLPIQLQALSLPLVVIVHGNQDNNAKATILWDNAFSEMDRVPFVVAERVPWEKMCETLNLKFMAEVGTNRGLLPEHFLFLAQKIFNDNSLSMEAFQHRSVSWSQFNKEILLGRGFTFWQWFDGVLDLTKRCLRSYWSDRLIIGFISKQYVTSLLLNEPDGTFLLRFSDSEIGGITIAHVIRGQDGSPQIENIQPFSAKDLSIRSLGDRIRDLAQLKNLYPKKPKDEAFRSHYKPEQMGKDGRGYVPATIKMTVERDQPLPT
Nature of the assay: STAT6 Fluorescence Polarization (FP) Assay. The format is binding. The conditions noted are these: STAT6 (W123-T658) 250 nM, probe 5-FAM-Ap[…]-NH2 2 nM, 45-minute incubation; read-out: STAT6 (FP assay IC50 class). In short, it runs like this:
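STAT6 (W123-T658) at 250 nM was mixed with 2 nM 5-FAM-labeled phosphotyrosine peptide probe in HEPES pH 7.4 buffer with NaCl, EDTA, Tween 20 and DTT, then added to serially diluted compounds at 1% DMSO final. Polarization was read after 45 min at room temperature; IC50 came from nonlinear regression of mP versus log concentration.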

T1 sequence (P40763 127-722): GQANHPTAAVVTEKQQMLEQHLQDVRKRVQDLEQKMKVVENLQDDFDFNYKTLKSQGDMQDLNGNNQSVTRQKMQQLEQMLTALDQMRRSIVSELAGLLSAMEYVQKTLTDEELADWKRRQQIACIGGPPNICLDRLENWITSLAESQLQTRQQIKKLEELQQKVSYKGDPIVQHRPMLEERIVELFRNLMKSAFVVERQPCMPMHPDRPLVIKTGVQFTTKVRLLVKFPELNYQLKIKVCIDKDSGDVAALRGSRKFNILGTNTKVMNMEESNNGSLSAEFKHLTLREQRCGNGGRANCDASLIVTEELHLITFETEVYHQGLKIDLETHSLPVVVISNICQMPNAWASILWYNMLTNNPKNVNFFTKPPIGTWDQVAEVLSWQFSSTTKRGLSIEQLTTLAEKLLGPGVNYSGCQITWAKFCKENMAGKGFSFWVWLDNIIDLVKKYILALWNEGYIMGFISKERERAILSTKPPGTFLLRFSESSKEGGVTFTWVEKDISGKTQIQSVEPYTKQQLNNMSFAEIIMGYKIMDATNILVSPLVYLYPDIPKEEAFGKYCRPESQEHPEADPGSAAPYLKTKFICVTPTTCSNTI

`O=C(N[C@H]1CCC[C@H]2CC[C@@H](C(=O)N3CC(c4cnccc4Cl)C3)N2C1=O)c1cc2cc(CP(=O)(O)O)ccc2s1` [Compound 519, ((2-(((3S,6S,9aS)-3-(3-(4-chloropyridin-3-yl)azetidine-1-carbonyl)-5-oxooctahydro-1H-pyrrolo[1,2-a]azepin-6-yl)carbamoyl)benzo[b]thiophen-5-yl)methyl)phosphonic acid]: the figures for the IC50 in assay [1] and in assay [2] were 1 to 10 µM and 3 to 30 µM, respectively.
As for `N#Cc1ccncc1C1CN(C(=O)[C@@H]2CC[C@@H]3CCC[C@H](NC(=O)c4cc5cc(CP(=O)(O)O)ccc5s4)C(=O)N32)C1` [Compound 520, ((2-(((3S,6S,9aS)-3-(3-(4-cyanopyridin-3-yl)azetidine-1-carbonyl)-5-oxooctahydro-1H-pyrrolo[1,2-a]azepin-6-yl)carbamoyl)benzo[b]thiophen-5-yl)methyl)phosphonic acid], the results for the IC50 in assay [1] and in assay [2] were 1 to 10 µM and 3 to 30 µM, respectively.
The matching figures for `O=C(N[C@H]1CCCC[C@H]2CC[C@@H](C(=O)NCc3cnc4[nH]cnc4c3)N2C1=O)c1cc2cc(C(F)P(=O)(O)O)ccc2s1` (stereo partly drawn) [Compound 521, ((2-(((3S,6S,10aS)-3-(((3H-imidazo[4,5-b]pyridin-6-yl)methyl)carbamoyl)-5-oxodecahydropyrrolo[1,2-a]azocin-6-yl)carbamoyl)benzo[b]thiophen-5-yl)fluoromethyl)phosphonic acid]: less than 0.1 µM and 3 to 30 µM.
The matching figures for `COC(=O)N1CC[C@@H](NC(=O)[C@@H]2CC[C@@H]3CCCC[C@H](NC(=O)c4cc5cc(C(F)P(=O)(O)O)ccc5s4)C(=O)N32)C1` (stereo partly drawn) [Compound 522, (fluoro(2-(((3S,6S,10aS)-3-(((R)-1-(methoxycarbonyl)pyrrolidin-3-yl)carbamoyl)-5-oxodecahydropyrrolo[1,2-a]azocin-6-yl)carbamoyl)benzo[b]thiophen-5-yl)methyl)phosphonic acid]: 1 to 10 µM and 0.3 to 3 µM.
The matching figures for `COC(=O)N1CC(NC(=O)[C@@H]2CC[C@@H]3CCCC[C@H](NC(=O)c4cc5cc(C(F)P(=O)(O)O)ccc5s4)C(=O)N32)C1` (stereo partly drawn) [Compound 523]: 1 to 10 µM and 3 to 30 µM.
Take `O=C(N[C@H]1CCCC[C@H]2CC[C@@H](C(=O)NC3CN(C(=O)OCc4ccccc4)C3)N2C1=O)c1cc2cc(C(F)P(=O)(O)O)ccc2s1` (stereo partly drawn) [Compound 524, ((2-(((3S,6S,10aS)-3-((1-((benzyloxy)carbonyl)azetidin-3-yl)carbamoyl)-5-oxodecahydropyrrolo[1,2-a]azocin-6-yl)carbamoyl)benzo[b]thiophen-5-yl)fluoromethyl)phosphonic acid]: the IC50 in assay [1] lay in the range of 0.1 to 1 µM; in assay [2], 0.3 to 3 µM.
With `COC(=O)N1C[C@H](NC(=O)[C@@H]2CC[C@@H]3CCCC[C@H](NC(=O)c4cc5cc(C(F)P(=O)(O)O)ccc5s4)C(=O)N32)[C@@H](F)C1` (stereo partly drawn) [Compound 525, (fluoro(2-(((3S,6S,10aS)-3-(((3S,4S)-4-fluoro-1-(methoxycarbonyl)pyrrolidin-3-yl)carbamoyl)-5-oxodecahydropyrrolo[1,2-a]azocin-6-yl)carbamoyl)benzo[b]thiophen-5-yl)methyl)phosphonic acid], the IC50 in assay [1] was in the range of 1 to 10 µM; in assay [2], 0.3 to 3 µM.
The corresponding values for `N#Cc1cccc(C2CN(C(=O)[C@@H]3CC[C@@H]4CCC[C@H](NC(=O)c5cc6cc(C(F)P(=O)(O)O)ccc6s5)C(=O)N43)C2)n1` (stereo partly drawn) [Compound 526] are less than 0.1 µM and 3 to 30 µM.
Turning to `O=C(N[C@H]1CCCC[C@H]2CC[C@@H](C(=O)N[C@@H]3CCN(C(=O)OC4CC4)C3)N2C1=O)c1cc2cc(C(F)P(=O)(O)O)ccc2s1` (stereo partly drawn) [Compound 527, ((2-(((3S,6S,10aS)-3-(((R)-1-(cyclopropoxycarbonyl)pyrrolidin-3-yl)carbamoyl)-5-oxodecahydropyrrolo[1,2-a]azocin-6-yl)carbamoyl)benzo[b]thiophen-5-yl)fluoromethyl)phosphonic acid], the half-maximal inhibitory concentration (IC50) lay within 1 to 10 µM in assay [1] and 0.3 to 3 µM in assay [2].
Consider `O=C(N[C@H]1CCCC[C@H]2CC[C@@H](C(=O)NC3CN(C(=O)OC4CC4)C3)N2C1=O)c1cc2cc(C(F)P(=O)(O)O)ccc2s1` (stereo partly drawn) [Compound 528, ((2-(((3S,6S,10aS)-3-((1-(cyclopropoxycarbonyl)azetidin-3-yl)carbamoyl)-5-oxodecahydropyrrolo[1,2-a]azocin-6-yl)carbamoyl)benzo[b]thiophen-5-yl)fluoromethyl)phosphonic acid], for which the IC50 in assay [1] fell in the range of 1 to 10 µM; in assay [2], 0.3 to 3 µM.
Regarding `CN(C)C(=O)N1CC[C@@H](NC(=O)[C@@H]2CC[C@@H]3CCCC[C@H](NC(=O)c4cc5cc(C(F)P(=O)(O)O)ccc5s4)C(=O)N32)C1` (stereo partly drawn) [Compound 529, ((2-(((3S,6S,10aS)-3-(((R)-1-(dimethylcarbamoyl)pyrrolidin-3-yl)carbamoyl)-5-oxodecahydropyrrolo[1,2-a]azocin-6-yl)carbamoyl)benzo[b]thiophen-5-yl)fluoromethyl)phosphonic acid], the IC50 in assay [1] lay within 0.1 to 1 µM; in assay [2], 3 to 30 µM.
For `CNC(=O)N1CC[C@@H](NC(=O)[C@@H]2CC[C@@H]3CCCC[C@H](NC(=O)c4cc5cc(C(F)P(=O)(O)O)ccc5s4)C(=O)N32)C1` (stereo partly drawn) [Compound 530, (fluoro(2-(((3S,6S,10aS)-3-(((R)-1-(methylcarbamoyl)pyrrolidin-3-yl)carbamoyl)-5-oxodecahydropyrrolo[1,2-a]azocin-6-yl)carbamoyl)benzo[b]thiophen-5-yl)methyl)phosphonic acid], the half-maximal inhibitory concentration (IC50) was 0.1 to 1 µM in assay [1] and 3 to 30 µM in assay [2].
In the case of `O=C(N[C@H]1CCC[C@H]2CC[C@@H](C(=O)N[C@@H]3CC[C@H](O)C3)N2C1=O)c1cc2cc(C(F)P(=O)(O)O)ccc2s1` (stereo partly drawn) [Compound 531, (fluoro(2-(((3S,6S,9aS)-3-(((1R,3S)-3-hydroxycyclopentyl)carbamoyl)-5-oxooctahydro-1H-pyrrolo[1,2-a]azepin-6-yl)carbamoyl)benzo[b]thiophen-5-yl)methyl)phosphonic acid], the IC50 was in the range of 1 to 10 µM in assay [1] and 3 to 30 µM in assay [2].
Take `NC(=O)N1CC[C@@H](NC(=O)[C@@H]2CC[C@@H]3CCCC[C@H](NC(=O)c4cc5cc(C(F)P(=O)(O)O)ccc5s4)C(=O)N32)C1` (stereo partly drawn) [Compound 532, ((2-(((3S,6S,10aS)-3-(((R)-1-carbamoylpyrrolidin-3-yl)carbamoyl)-5-oxodecahydropyrrolo[1,2-a]azocin-6-yl)carbamoyl)benzo[b]thiophen-5-yl)fluoromethyl)phosphonic acid]: the figures for the IC50 in assay [1] and in assay [2] were less than 0.1 µM and 3 to 30 µM, respectively.
Consider `Cn1ccc(N2CC[C@@H](NC(=O)[C@@H]3CC[C@@H]4CCCC[C@H](NC(=O)c5cc6cc(C(F)P(=O)(O)O)ccc6s5)C(=O)N43)C2)n1` (stereo partly drawn) [Compound 533, (fluoro(2-(((3S,6S,10aS)-3-(((R)-1-(1-methyl-1H-pyrazol-3-yl)pyrrolidin-3-yl)carbamoyl)-5-oxodecahydropyrrolo[1,2-a]azocin-6-yl)carbamoyl)benzo[b]thiophen-5-yl)methyl)phosphonic acid], for which the results for the IC50 in assay [1] and in assay [2] were 1 to 10 µM and 0.3 to 3 µM, respectively.
The matching figures for `Cc1cccnc1N1CC[C@@H](NC(=O)[C@@H]2CC[C@@H]3CCCC[C@H](NC(=O)c4cc5cc(C(F)P(=O)(O)O)ccc5s4)C(=O)N32)C1` (stereo partly drawn) [Compound 534, (fluoro(2-(((3S,6S,10aS)-3-(((R)-1-(3-methylpyridin-2-yl)pyrrolidin-3-yl)carbamoyl)-5-oxodecahydropyrrolo[1,2-a]azocin-6-yl)carbamoyl)benzo[b]thiophen-5-yl)methyl)phosphonic acid]: 0.1 to 1 µM and 3 to 30 µM.
Regarding `CO[C@H]1CC[C@@H](NC(=O)[C@@H]2CC[C@@H]3CCC[C@H](NC(=O)c4cc5cc(C(F)P(=O)(O)O)ccc5s4)C(=O)N32)C1` (stereo partly drawn) [Compound 535, (fluoro(2-(((3S,6S,9aS)-3-(((1R,3S)-3-methoxycyclopentyl)carbamoyl)-5-oxooctahydro-1H-pyrrolo[1,2-a]azepin-6-yl)carbamoyl)benzo[b]thiophen-5-yl)methyl)phosphonic acid], the IC50 lay within 1 to 10 µM in assay [1] and 3 to 30 µM in assay [2].
The corresponding values for `CO[C@@H]1CC[C@@H](NC(=O)[C@@H]2CC[C@@H]3CCC[C@H](NC(=O)c4cc5cc(C(F)P(=O)(O)O)ccc5s4)C(=O)N32)C1` (stereo partly drawn) [Compound 536, (fluoro(2-(((3S,6S,9aS)-3-(((1R,3R)-3-methoxycyclopentyl)carbamoyl)-5-oxooctahydro-1H-pyrrolo[1,2-a]azepin-6-yl)carbamoyl)benzo[b]thiophen-5-yl)methyl)phosphonic acid] are 1 to 10 µM and 3 to 30 µM.
